The term MIC denotes the smallest concentration in the dilution series that meets the test's criterion for growth inhibition. High values mean a need for much substance, low ones inhibition by little substance. Broadly, the EC50 is the concentration at which the effect is half-maximal. Usually IC50 stands for the concentration that gives 50% inhibition. In general, CC50 refers to the concentration that lowers cell viability or growth by half. Low values mean harm at low concentration, high ones better tolerance by the cells.

In brackets after ≈: the same amount, converted by molar mass. Where a name gives a salt, the structure may show the parent alone.

The source of these data is ChEMBL document CHEMBL1154133, “Pestalazines and pestalamides, bioactive metabolites from the plant pathogenic fungus Pestalotiopsis theae” (J Nat Prod, 2008).

Data set [1] has as its system Aspergillus fumigatus. The data set is described as follows: Antifungal activity against Aspergillus fumigatus ATCC 10894 by alamar blue assay. In kind it is functional. A general note: Resazurin is reduced to fluorescent resorufin, in cell work by metabolically active cells.
Data set [2] concerns Human immunodeficiency virus 1. The data set can be described thus: Antiviral activity against HIV1 LAI infected in human C8166 cells assessed as inhibition of viral replication by ELISA. The format is functional, organism-based. The conditions noted are these: Human immunodeficiency virus 1, LAI.
In data set [3] the test system is Aspergillus fumigatus. The data set is described as follows: Antifungal activity against Aspergillus fumigatus ATCC 10894 by microplate reader assay. In kind it is functional, organism-based.
The nature of data set [4]: Cytotoxicity against human C8166 cells after 4 days by MTT assay. The format is cell-based.

Consider `OC(Cn1cncn1)(Cn1cncn1)c1ccc(F)cc1F` [FLUCONAZOLE], for which the MIC in data set [1] worked out at 163 µM (≈ 50 µg/mL).
With `CC(C)(C)NC(=O)[C@@H]1CN(Cc2cccnc2)CCN1C[C@@H](O)C[C@@H](Cc1ccccc1)C(=O)N[C@H]1c2ccccc2C[C@H]1O` [INDINAVIR SULFATE], the EC50 in data set [2] was 5.5 nM.
`C[C@@H](CC(=O)NC(=O)c1coc(Cc2ccccc2)cc1=O)C(=O)O` [PESTALAMIDE A] gave a half-maximal inhibitory concentration (IC50) in data set [3] of 1500 nM. In data set [1], the lowest concentration to inhibit growth (MIC) was 57.8 µM (≈ 19.8 µg/mL). For the same compound, in data set [2], the 50% effective concentration (EC50) worked out at 64200 nM. Besides, the CC50 at 96 h in data set [4] is above 100000 nM.
